# Assay results published in patent US10351915B2 (Berg LLC, priority 2009, dated 2019).
# Test system: Lactate Dehydrogenase (LDH)
# Assay: Western blot, Lactate Dehydrogenase levels
# Assay type: cell-based, human
# Experimental: In this experiment, the cells were additionally treated with either 5 mM glucose (“5G”) or 22 mM glucose (“22G”). The samples derived from the cells were processed and run on a 4-12% Bis-Tris Novex NuPAGE gel as described above. The gels were run, transferred and stained essentially as described above.
# After transfer each blot was dried for 15-20 minutes, activated with methanol for 5 seconds, washed with water for 5 minutes, and TBST for 15 minutes. The blots were blocked for 1 hour with 5% blocking reagent in TBS-T at room temperature and then washed 3 times with TBS-T (1×-15′; 2×5′ each) and probed with the primary antibody for Lactate Dehydrogenase (abcam ab2101; polyclonal) in 5% BSA (at 1:1000 dilutions) by incubation overnight at 4 deg C. with shaking. After the overnight incubation with primary antibody for Lactate Dehydrogenase, the blots were washed 3 times with TBS-T (1×-15′; 2×5′ each) and probed with the secondary antibody (rabbit antigoat; 1:10,000 dilution) for 1 h at room temperature. After 1 h of incubation with secondary antibodies, the blots were washed 3 times with TBS-T (1×-15′; 2×5′ each) and then incubated with ECF reagent for 5 mins and then each blot scanned with 5100 Fuji Laser scanner at 25 uM resolution, 16 bit, green laser, at 400V and at 500 V.
# In this experiment, the cells were additionally treated with either 5 mM glucose (“5G”) or 22 mM glucose (“22G”). The samples derived from the cells were processed and the gels were run, transferred, stained and scanned essentially as described above.
# The levels of LDH and PDH were determined by probing the blots successively with primary antibodies for LDH and PDH, essentially as described above.
# The above blots were stripped by incubating for 30 minutes with methanol, followed by two 10 minute washes with TBS-T, then 30 minutes of incubation with Stripping buffer at 50 deg C., and followed by two washes with 100 ml or more of TBS-T for 30′ each. The blots were scanned in laser scanner to check for complete stripping. […]
smiles,measurement,setting,value
"COC1=C(OC)C(=O)C(C/C=C(\C)CC/C=C(\C)CC/C=C(\C)CC/C=C(\C)CC/C=C(\C)CC/C=C(\C)CC/C=C(\C)CC/C=C(\C)CC/C=C(\C)CCC=C(C)C)=C(C)C1=O [Q10, Coenzyme Q10]",Lactate Dehydrogenase Normalized Volume (24 h),"HepG2, 5g glucose, 24 h, amount 50",7900
same,LDH expression,cancer,reduced
same,LDH expression,normal cells,minimal effect
